According to patent publication US20130217092A1, “Enhancing Reactivation of Thermostable Reversibly Inactivated Enzymes” (Qiagen GmbH, priority 2006, published 2013):

Key:
Assay type in all cases: biochemical
[1] = target: chemically modified enzyme (Thermus aquaticus, UniProt P19821); test: Additionally tested compounds, enhancement of enzyme activity of a chemically modified enzyme; conditions: conditions not stated
[2] = target: T1, unmodified Taq DNA Polymerase (QIAGEN) (Thermus aquaticus, UniProt P19821); test: SYBR Green I real-time PCR, Example 1 (control enzyme)
T1 construct: purchased QIAGEN
T1 sequence (P19821 whole entry): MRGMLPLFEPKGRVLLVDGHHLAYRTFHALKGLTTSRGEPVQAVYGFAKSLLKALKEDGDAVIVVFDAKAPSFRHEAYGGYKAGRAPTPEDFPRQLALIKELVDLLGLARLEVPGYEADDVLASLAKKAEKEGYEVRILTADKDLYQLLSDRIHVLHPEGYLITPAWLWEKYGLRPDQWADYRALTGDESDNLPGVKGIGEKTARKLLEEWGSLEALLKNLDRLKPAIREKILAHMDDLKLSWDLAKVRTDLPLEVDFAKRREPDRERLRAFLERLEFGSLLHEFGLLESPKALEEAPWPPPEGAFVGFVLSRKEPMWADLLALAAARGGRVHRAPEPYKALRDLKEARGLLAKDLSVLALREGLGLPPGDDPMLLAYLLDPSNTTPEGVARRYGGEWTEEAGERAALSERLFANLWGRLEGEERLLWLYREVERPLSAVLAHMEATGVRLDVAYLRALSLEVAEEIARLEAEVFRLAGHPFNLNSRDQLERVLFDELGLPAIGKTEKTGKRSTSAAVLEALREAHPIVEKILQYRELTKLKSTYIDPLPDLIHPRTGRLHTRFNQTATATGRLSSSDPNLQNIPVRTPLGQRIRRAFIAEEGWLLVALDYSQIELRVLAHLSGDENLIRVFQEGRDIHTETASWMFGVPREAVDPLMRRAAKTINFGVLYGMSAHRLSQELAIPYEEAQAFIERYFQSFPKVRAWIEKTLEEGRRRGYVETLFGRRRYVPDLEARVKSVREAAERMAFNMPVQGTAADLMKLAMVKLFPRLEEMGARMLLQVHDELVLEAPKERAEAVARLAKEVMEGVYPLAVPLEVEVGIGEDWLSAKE
Source text: (§1) In real-time PCR, the enzymatic reaction is continuously monitored by measuring fluorescence signals throughout the reaction. Double-stranded DNA molecules are generated during the PCR reaction. These PCR products are detected by using SYBR Green I fluorescent dye that binds selectively to dsDNA only. Thus, an increase of fluorescence indicates an increase in PCR product amount and thus activity of the DNA polymerase contained in the reaction. […] Thus, the CT value is a measurement for the enzyme activity contained in the reaction: Low CT values indicate high enzyme activity and high CT values represent lower enzyme activity residing in the reaction.
A SYBR Green I based PCR reaction was conducted in the presence of unmodified Taq DNA Polymerase (QIAGEN) serving as a control reaction, using HotStarTaq DNA polymerase (QIAGEN) or AmpliTaq Gold (Applied Biosystems). Each reaction contained 0.625 units of the respective DNA polymerase, 1× PCR reaction buffer of the respective DNA polymerase, 200 μM of each dNTP, 0.5 μM primer A: 5′-[…]-3′ (SEQ ID NO:1), 0.5 μM primer B: 5′-[…]-3′ (SEQ ID NO:2), PCR grade water and in case of testing nitrogen-containing compounds as example 100 mM Triazole, final concentration. […] Average CT values were determined from triplicate reactions comparing reactions without the addition of Triazole and with 100 mM Triazole.

[3] = target: T2, AmpliTaq Gold (Applied Biosystems) (Thermus aquaticus, UniProt P19821); test: SYBR Green I real-time PCR, Example 1, reactivation of chemically modified enzyme
T2 construct: purchased Applied Biosystems
T2 sequence (P19821 whole entry): as above
Source text: (§2) As model system to exemplify the invention, hot start PCR was chosen with two commercially available enzymes. […] AmpliTaq Gold (Applied Biosystems) is chemically inactivated using dicarboxylic acid anhydride whereas HotStarTaq (QIAGEN) is chemically inactivated using formaldehyde.
as §1
(§3) A SYBR Green I based PCR reaction was conducted in the presence of unmodified Taq DNA Polymerase (QIAGEN) serving as a control reaction, using HotStarTaq DNA polymerase (QIAGEN) or AmpliTaq Gold (Applied Biosystems). Each reaction contained 0.625 units of the respective DNA polymerase, 1× PCR reaction buffer of the respective DNA polymerase, 200 μM of each dNTP, 0.5 μM primer A: 5′-[…]-3′ (SEQ ID NO:1), 0.5 μM primer B: 5′-[…]-3′ (SEQ ID NO:2), PCR grade water and in case of testing nitrogen-containing compounds as example 100 mM Triazole, final concentration. Each reaction contained 10 ng human genomic DNA as amplification substrate. PCR reactions were started with an initial enzyme activation step at 95° C. for 5 minutes followed by 50 cycles: 94° C. for 15 seconds and 60° C. for 60 seconds. Average CT values were determined from triplicate reactions comparing reactions without the addition of Triazole and with 100 mM Triazole.

[4] = target: T3, HotStarTaq DNA polymerase (QIAGEN) (Thermus aquaticus, UniProt P19821); test: as above
T3 construct: purchased QIAGEN
T3 sequence (P19821 whole entry): as above
Source text: as §2, §1, §3

[5] = target: T4, HotStarTaq DNA Polymerase (Thermus aquaticus, UniProt P19821); test: Fast PCR with shortened cycling times, agarose gel, Example 2; conditions: 100, 200, 300, 400 and 500 mM Triazole vs absence of Triazole; FIG. 1
T4 construct: purchased QIAGEN
T4 sequence (P19821 whole entry): as above
Protocol: Each PCR reaction contained 1.5 units HotStarTaq DNA Polymerase, 10 ng template human genomic DNA, 200 μM of each dNTP, 0.5 μM primer A: 5′-CACACAGCGATGGCAGCTATGC-3′ (SEQ ID NO:3), 0.5 […] primer B: 5′-CCC AGT GAT GGG CCA GCT C-3′ (SEQ ID NO:4), PCR grade water and in case of testing nitrogen-containing compounds as example 100 mM, 200 mM, 300 mM, 400 mM and 500 mM Triazole, final concentration. PCR reactions were started with an initial enzyme activation step at 95° C. for 5 minutes followed by 35 cycles: 96° C. for 5 seconds, 60° C. for 5 seconds and 68° C. for 30 seconds. PCR products were analysed on a 1% TAE agarose gel (FIG. 1).

[6] = target: T4, HotStarTaq DNA Polymerase; test: Fast PCR with 20 mM ammonium chloride and Triazole, agarose gel, Example 5
Protocol: System C shown in Example 4 was chosen as model system. Each PCR reaction contained 1.5 units HotStarTaq DNA Polymerase, 10 ng template human genomic DNA, 200 μM of each dNTP, 0.5 μM of each primer A: 5′-CCTTGCCTTAGATGTGTCGGCA-3′ (SEQ ID NO:11), primer B: 5′-CCCAAACCCAACCCATACACAC -3′ (SEQ ID NO:12), and PCR grade water. PCR reactions were started with an initial enzyme activation step at 95° C. for 5 minutes followed by 35 cycles: 96° C. for 5 seconds, 60° C. for 5 seconds and 68° C. for 45 seconds. PCR products from duplicate reactions were analysed on a 1% TAE agarose gel. M: DNA size ladder.

[7] = target: T4, HotStarTaq DNA Polymerase; test: Fast PCR with ammonium chloride, agarose gel, Example 4; conditions: 10, 20 and 30 mM ammonium chloride vs 0 mM; PCR assays A, B, C; FIG. 3
Protocol: Each PCR reaction contained 1.5 units HotStarTaq DNA Polymerase, 10 ng template human or mouse genomic DNA, 200 μM of each dNTP, 0.5 μM of each primer for each different PCR assay (Assay A, primer A1: 5′-GCTTGAGCAACCTGGCTAAGATAGAGG-3′ (SEQ ID NO:7), primer A2: 5′-GAGTTAGCAGGAGGCTGGATGCAGATG-3′ (SEQ ID NO:8); Assay B, primer B1: 5′-CCACAATGGACATCACACAAGTGAG-3′ (SEQ ID NO:9), primer B2: 5′-GATCTTTCTGCCCAGATACCATTCG-3′ (SEQ ID NO:10); Assay C, primer C1: 5′-CCTTGCCTTAGATGTGTCGGCA-3′ (SEQ ID NO:11), primer C2: 5′-CCCAAACCCAACCCATACACAC-3′ (SEQ ID NO:12)) and PCR grade water. PCR reactions were started with an initial enzyme activation step at 95° C. for 5 minutes followed by 35 cycles: 96° C. for 5 seconds, 60° C. for 5 seconds and 68° C. for 30 seconds/kb PCR product size. PCR products were analysed on a 1% TAE agarose gel. M: DNA size ladder (FIG. 3).

chemically modified enzyme, sequence (P19821 whole entry): as the sequence (P19821 whole entry) above

## N.O=C(O)c1ccccc1 [ammonium benzoate]
[1]
  improvement of enzyme activity: no improvement

## Triazole
[2]; 100 mM Triazole, unmodified Taq DNA polymerase
  effect on the enzyme activity: no effect
[2]; Taq (unmodified), activation 95° C. for 5 minutes, triplicate reactions, low CT = high enzyme activity
  Average CT value with 100 mM Triazole: 21.3
[3]; 100 mM Triazole
  effect on the enzyme activity: clearly higher enzyme activity
[3]; activation 95° C. for 5 minutes, triplicate reactions, low CT = high enzyme activity
  Average CT value with 100 mM Triazole: 25.6
[4]; 100 mM Triazole, HotStarTaq DNA Polymerase
  effect on the enzyme activity: clearly higher enzyme activity
[4]; HotStarTaq, activation 95° C. for 5 minutes, triplicate reactions, low CT = high enzyme activity
  Average CT value with 100 mM Triazole: 35.9
[5]
  enzyme activity / generation of the desired PCR product under fast cycling: significantly improves enzyme activity
[6]; 500 mM Triazole in the presence of 20 mM ammonium chloride
  enzyme activity of the chemically modified enzyme: still higher than in the reaction without Triazole
[6]; Triazole 100-500 mM in the presence of 20 mM ammonium chloride vs no Triazole, FIG. 4
  enzyme activity of the chemically modified enzyme: clear benefit for the enzyme activity

## Cl.N [ammonium chloride]
[7]
  overall enzyme activity of the chemically inactivated enzyme: increase of overall enzyme activity

## N.N.O=C(O)O [ammonium carbonate]
[1]
  improvement of enzyme activity: no improvement

## N.N.O=S(=O)(O)O [ammonium sulfate]
[1]
  improvement of enzyme activity: no improvement

## ammonium citrate
[1]
  improvement of enzyme activity: no improvement

## N.N.O=P(O)(O)O [di-ammonium hydrogen phosphate]
[1]
  improvement of enzyme activity: no improvement
